Columns and labels:
Assay in all cases: relative viability (nuclei count vs DMSO), 5 days (fraction); higher = more cells survive
[1] = compound: C[C@@H](N)c1ccc(C(=O)Nc2ccnc3[nH]ccc23)cc1 + O=C(CCCCCCC(=O)Nc1ccccc1)NO [Vorinostat] (partner 1 µM)
Summary of the method: (§1)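 Values are medians from duplicate plates. Each reflects relative viability, defined as the nuclei count of treated wells over that of vehicle wells. Lung cancer cell lines in 1536-well plates were pin-tool dosed one day after seeding with one drug alone or with a fixed anchor-drug dose plus five library-drug doses (not always all listed) in √10 steps, then fixed, stained and imaged at 4× after 5 days.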

[2] = compound: O[C@H]1CC[C@H](Nc2ncc3nc(Nc4c(F)cc(F)cc4F)n([C@H]4CCOC4)c3n2)CC1 [Tanzisertib] + Cc1cc(Nc2cc(N3CCN(C)CC3)nc(Sc3ccc(NC(=O)C4CC4)cc3)n2)n[nH]1 [Tozasertib] (partner 0.1 µM)
Summary of the method: as §1

[3] = compound: O[C@H]1CC[C@H](Nc2ncc3nc(Nc4c(F)cc(F)cc4F)n([C@H]4CCOC4)c3n2)CC1 [Tanzisertib] + Cc1nc(Nc2ncc(C(=O)Nc3c(C)cccc3Cl)s2)cc(N2CCN(CCO)CC2)n1 [Dasatinib] (partner 0.075 µM)
Summary of the method: as §1

[4] = compound: C[C@@H](N)c1ccc(C(=O)Nc2ccnc3[nH]ccc23)cc1 + Cc1nc(NC(=O)N2CCC[C@H]2C(N)=O)sc1-c1ccnc(C(C)(C)C(F)(F)F)c1 [Alpelisib] (partner 2 µM)
Summary of the method: as §1

Cell Line | relative viability ([1]; first compound 0.04 µM) | relative viability ([1]; first compound 0.1265 µM) | relative viability ([1]; first compound 0.4 µM) | relative viability ([1]; first compound 1.265 µM) | relative viability ([1]; first compound 4 µM) | relative viability ([2]; first compound 0.08 µM) | relative viability ([2]; first compound 0.253 µM) | relative viability ([2]; first compound 0.8 µM) | relative viability ([2]; first compound 2.53 µM) | relative viability ([2]; first compound 8 µM) | relative viability ([3]; first compound 0.08 µM) | relative viability ([3]; first compound 0.253 µM) | relative viability ([3]; first compound 0.8 µM) | relative viability ([3]; first compound 2.53 µM) | relative viability ([3]; first compound 8 µM) | relative viability ([4]; first compound 0.04 µM) | relative viability ([4]; first compound 0.1265 µM) | relative viability ([4]; first compound 0.4 µM) | relative viability ([4]; first compound 4 µM) | relative viability ([4]; first compound 1.265 µM)
SW 900 | 0.716 | 0.54 | 0.738 | 0.884 | 0.877 | 0.686 | 0.528 | 0.603 | 0.501 | 0.544 | 0.692 | 0.574 | 0.585 | 0.621 | 0.496 | – | – | – | – | –
NCI-H1944 | 0.56 | 0.553 | 0.616 | 0.491 | 0.582 | 0.289 | 0.25 | 0.237 | 0.223 | 0.242 | 0.254 | 0.23 | 0.234 | 0.196 | 0.22 | 0.981 | 0.796 | 0.928 | 0.657 | –
NCI-H727 | 1.6 | 1.22 | 1.52 | 1.57 | 1.49 | 0.702 | 0.714 | 0.699 | 0.663 | 0.66 | 0.489 | 0.286 | 0.403 | 0.349 | 0.271 | 0.572 | 0.809 | 0.41 | 0.786 | 0.937
NCI-H1650 | 0.7 | 0.663 | 0.675 | 0.663 | 0.648 | 0.392 | 0.433 | 0.399 | 0.359 | 0.294 | 0.319 | 0.305 | 0.273 | 0.283 | 0.28 | – | – | – | – | –
HCC-827 | – | 0.813 | 1.04 | 0.972 | 0.701 | 0.432 | 0.449 | 0.354 | 0.353 | 0.3 | 0.457 | 0.26 | 0.35 | 0.201 | 0.105 | 0.982 | 1.09 | 1.04 | 0.895 | 1.03
HCC-366 | 0.385 | 0.306 | 0.486 | 0.181 | 0.398 | 0.105 | 0.0977 | 0.114 | 0.0525 | 0.0508 | 0.81 | 0.606 | 0.629 | 0.62 | 0.542 | 0.41 | 0.398 | 0.581 | 0.329 | –
HARA | 0.521 | 0.646 | 0.604 | 0.403 | 0.26 | 0.136 | 0.112 | 0.109 | 0.0917 | 0.103 | 0.279 | 0.246 | 0.254 | 0.278 | 0.265 | 0.813 | 0.928 | 0.914 | 0.598 | 0.796
NCI-H322M | 1.21 | 1.04 | 1.11 | 1.05 | 1.39 | 0.473 | 0.468 | 0.498 | 0.487 | 0.499 | 0.243 | 0.248 | 0.275 | 0.249 | 0.262 | 0.909 | 0.838 | 0.935 | 0.969 | –
LXF-289 | 0.742 | 0.794 | 0.816 | 0.876 | 0.836 | 0.236 | 0.165 | 0.149 | 0.17 | 0.147 | 0.233 | 0.202 | 0.222 | 0.212 | 0.215 | 1.12 | 1.04 | 1.04 | 0.85 | 1.07
PC-3 [JPC-3] | 0.803 | 0.77 | 0.85 | 0.836 | 0.725 | 0.903 | 0.99 | 0.943 | 0.852 | 0.781 | 0.912 | 1.04 | 1.01 | 0.977 | 0.886 | 1.1 | 1.09 | 1.03 | 0.866 | 1.12
CAL-12T | 0.863 | 0.771 | 0.914 | 0.876 | 0.897 | 0.361 | 0.409 | 0.307 | 0.264 | 0.266 | 0.453 | 0.343 | 0.375 | 0.314 | 0.319 | 1.37 | 1.36 | 1.43 | 0.903 | 1.54
COR-L 105 | 1.04 | 0.793 | 0.998 | 0.76 | 0.544 | 0.386 | 0.366 | 0.323 | 0.388 | 0.331 | 0.397 | 0.356 | 0.297 | 0.354 | 0.255 | 0.876 | 1.07 | 0.918 | 0.65 | 0.957
NCI-H2347 | 0.762 | 0.508 | 0.554 | 0.559 | 0.676 | 0.569 | – | 0.664 | 0.682 | 0.365 | 0.333 | – | 0.309 | 0.26 | 0.303 | 1.02 | 0.976 | 1.2 | 0.845 | 1.05
NCI-H2126 | 1.02 | 0.685 | 0.738 | 0.432 | 0.916 | 0.91 | 0.872 | 0.85 | 0.813 | 0.859 | 0.614 | 0.626 | 0.614 | 0.628 | 0.572 | 0.828 | 0.795 | 0.79 | 0.881 | 0.82
